Test results reported in patent US5618675A, “Methods and compositions for detecting lipopolysaccharides using CAP18 fragments” (Panorama Research, Inc., dated 1997).
Where two headings read alike, the source gives them in different places.

Tests used:
Pseudomonas aeruginosa = experiment: Antibacterial CFU assay; details: for IC50: read-out: anti-bacterial IC50 (CFU)
Candida albicans = experiment: Antimicrobial activity; details: range 0-20 μg/ml
prothrombin (factor II) [1] = biological target: T1, prothrombin (factor II) (Homo sapiens, UniProt P00734); experiment: Prothrombin activation by factor Xa; format: biochemical; details: Xa formed from tissue factor, factor VII and factor X, FIG. 17B
Protocol: (§1) Synthetic chromogenic substrate method: Substrate for factor Xa, S2222 (Kabi, Bz-Ile-Glu-Arg-pNA) was used. Substrate for factor II (prothrombin), Boc-Val-Pro-Arg-pNA (Sigma Chemical Co.) was used.
a) Factor X activation. Factor X (1 unit/ml, 400 μl) was activated by incubating with a reaction mixture of factor VII (1 unit/ml, 400 μl), tissue factor (5 mg/ml, 100 μl) and CaCl2 at 37° C. for 10 min.
b) Prothrombin (factor II) activation.
c) Hydrolysis of thrombin substrate. To 300 μl of the reaction mixture (step b), thrombin 60 μl of substrate and 240 μl of Tris buffer was added and further incubated for 15 min.

Klebsiella pneumoniae = experiment: Antibacterial CFU assay
factor Xa = biological target: T2, factor Xa (Homo sapiens, UniProt P00742); experiment: Direct inhibition of Xa, substrate S2222; format: biochemical; details: for direct Xa inhibition: concentrations over 10 μg/ml, substrate S2222; for IC50 / IC50, Direct Xa: synthetic substrate
T2 construct: purchased Sigma Chemical Co., St. Louis, Mo
T2 sequence (P00742 41-179 limits assumed): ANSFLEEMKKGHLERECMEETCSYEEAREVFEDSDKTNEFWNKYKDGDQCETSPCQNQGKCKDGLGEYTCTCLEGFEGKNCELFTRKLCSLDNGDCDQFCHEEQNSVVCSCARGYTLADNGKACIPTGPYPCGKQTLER
T2 sequence (P00742 235-488 limits assumed): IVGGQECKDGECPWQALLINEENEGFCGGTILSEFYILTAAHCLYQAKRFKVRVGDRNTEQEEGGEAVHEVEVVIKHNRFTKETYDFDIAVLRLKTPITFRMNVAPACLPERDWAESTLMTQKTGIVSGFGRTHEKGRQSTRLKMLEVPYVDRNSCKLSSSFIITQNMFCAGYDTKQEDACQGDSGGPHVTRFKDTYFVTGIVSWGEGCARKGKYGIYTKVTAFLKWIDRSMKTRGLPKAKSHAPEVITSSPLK
Source text: (§2) Clotting method: Human plasma (Ortho plasma control, Ortho Diagnostic Co.). ATPP reagent (Organotechnika, Tokyo, Japan). Standard tissue factor, rabbit brain thromboplastin (Simplastin, ONO Pharmaceutical, Tokyo, Japan). Purified human factor VII, factor X, factor Xa (Sigma Chemical Co., St. Louis, Mo.). Russell Viper venom (RVV) and Echis carinatus venom (ECV, Sigma Co.).
as §1
Next the effect of the RNIP peptides on the conversion of factor X to Xa was studied by two methods. […] In summary these studies confirmed that the peptides inhibit the clotting cascade by inhibiting the conversion of factor X to Xa.

Human plasma [2] = experiment: Prothrombin time (PT); format: biochemical; details: for inhibition of prothrombin time (PT), words: FIG. 14A
Protocol: as §2
(§3) Instrumentation: Clotting assays were carried out using a Fibrometer (BioQuest Division, Becton Dickinson; Cokeysville, […]., USA).
Human plasma (100 μl) was incubated with 100 μl of each peptide at 37° C. for 3 min., then 100 μl of tissue factor (250 μg/ml) CaCl2 was added and clotting time was measured.

[3] = system: methicillin-resistant Staphylococcus aureus; experiment: Antibacterial CFU assay; details: for IC50: read-out: IC50, inhibition of CFU
factor X = biological target: T3, factor X (Homo sapiens, UniProt P00742); experiment: Factor X activation by tissue factor and factor VII, synthetic substrate S-2222; format: biochemical; details: FIG. 16B
T3 construct: purchased Sigma Chemical Co., St. Louis, Mo
T3 sequence (P00742 41-179 limits assumed): as the sequence (P00742 41-179 limits assumed) above
T3 sequence (P00742 183-488 limits assumed): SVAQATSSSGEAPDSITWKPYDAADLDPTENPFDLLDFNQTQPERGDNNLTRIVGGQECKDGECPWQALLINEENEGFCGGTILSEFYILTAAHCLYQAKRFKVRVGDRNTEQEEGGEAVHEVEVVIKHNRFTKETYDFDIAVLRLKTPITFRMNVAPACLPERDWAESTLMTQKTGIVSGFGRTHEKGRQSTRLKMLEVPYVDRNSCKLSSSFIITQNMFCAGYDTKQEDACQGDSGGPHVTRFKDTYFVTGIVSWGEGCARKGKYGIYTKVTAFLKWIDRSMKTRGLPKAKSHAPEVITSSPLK
Source text: as §2, §1
A reaction mixture of factor VII (1 unit/ml, 200 μl), factor X (1 unit/ml, 200 μl), tissue factor (2.5 mg/ml, 50 μl), 25 mM-CaCl2(50 μl) and 50 μl of several concentration of peptide was incubated at 37° C. for 10 min. To 200 μl of the reaction mixture, 60 μl of 4 mM S-2222, a synthetic substrate for factor Xa, and 340 μl of Tris-HCl buffer, pH 8.2, was added and further incubated for 15 min. The reaction was stopped by adding 60 μl of 50% acetic acid, and OD for p-nitroaniline was read at 405 nm.

prothrombin (factor II) [4] = biological target: T1, prothrombin (factor II); experiment: Prothrombin activation by Echis carinatus venom (ECV); format: biochemical; details: FIG. 17A
Protocol: as §1
A reaction mixture of prothrombin (factor II) (0.1 unit/ml, 200 μl), ECV (1 unit/ml, 200 μl), various concentration of peptide (70 μl), 50 μl of 25 mM-CaCl2 and 180 μl of Tris buffer was incubated at 37° C. for 10 min. To 300 μl of the reaction mixture, 60 μl of 4mM-thrombin substrate and 240 μl of buffer was added and further incubated for 15 min.

[5] = system: thioglycolate-stimulated murine peritoneal macrophages; experiment: LPS-induced tissue factor generation by macrophages; format: cell-based; details: for inhibition of LPS induced tissue factor: peptide 1 μg/ml, 6 hr, FIG. 12
Protocol: […] Cells were cultured for 6 hours prior to assay of tissue factor by clotting assay.
[…] Production of tissue factor after 6 hr. was measured by clotting assay. […] In the absence of LPS no tissue factor is synthesized by these cells.

[6] = system: two strains of Mycobacterium avium; experiment: Antimicrobial activity; format: cell-based; details: range 0-20 μg/ml
[7] = system: methicillin-sensitive Staphylococcus aureus; experiment: Antibacterial CFU assay; details: for IC50: read-out: IC50, inhibition of CFU
[8] = system: Salmonella minnesota ReLPS sensitized sheep erythrocytes; experiment: LPS hemagglutination assay (MAC); format: binding
Protocol: For hemagglutination assays, erythrocytes were sensitized with LPS as follows. One ml of 1% erythrocyte suspension (human 0 type, C3H/HeN mouse or sheep) was mixed with 0.2 ml of LPS solution and incubated at 37° C. for 30 min, followed by washing with phosphate buffered saline (PBS), and then the concentration of suspension was adjusted to 1.0%. In the case of S-LPS, the solution was heated at 100° C. for 1 hour before sensitization of erythrocytes. […] Activity of CAP was expressed as a minimum agglutinating concentration (MAC) of CAP. According to the method of Kirikae et al. (1986) Microbiol. Immunol. 30:269-274, 50 μl of 2-fold serial dilution of Re-LPS was added to 50 μl of 1.0% rabbit erythrocyte suspension, and incubated at 37° C. for 3, hour. Minimum agglutinating concentration of Re-LPS was expressed as 1 HA unit.

Human plasma [9] = experiment: Activated partial thromboplastin time (APTT); format: biochemical
Protocol: as §2, §3
Human plasma (100 μl), 100 μl of APTT reagent and 100 μl of peptide was incubated at 37° C. for 5 min after which CaCl2 was added and clotting time measured.

Salmonella typhimurium = experiment: Antibacterial CFU assay; details: read-out: anti-bacterial IC50 (CFU); FIG. 6D

Substance | IC50 (Pseudomonas aeruginosa) | activity versus Candida albicans (Candida albicans) | IC50, factor II activated by Xa (prothrombin (factor II) [1]) | anti-bacterial IC50 (CFU) (Klebsiella pneumoniae) | direct Xa inhibition (factor Xa) | IC50 (factor Xa) | IC50, Direct Xa (factor Xa) | IC50, Prothrombin time (Human plasma [2]) | inhibition of prothrombin time (PT), words (Human plasma [2]) | IC50, inhibition of CFU [3] | IC50 [3] | IC50, factor X activated by tissue factor and purified factor VII (factor X) | inhibition of Echis carinatus venom activation of purified factor II to IIa (prothrombin (factor II) [4]) | inhibition of LPS induced tissue factor [5] | activity versus two strains of Mycobacterium avium [6] | IC50, inhibition of CFU [7] | IC50 [7] | Hemagglutination MAC (minimum agglutinating concentration) [8] | IC50, Activate Partial Thromboplastin time (Human plasma [9]) | IC50 (Salmonella typhimurium) | other results
36-1: synthetic rabbit RNIP-derived fragment, amino acids 135-166 of SEQ ID NO:4 (GLRKRLRKFRNKIKEKLKKIGQKIQGLLPKLA) | < 50 nM | inactive | < 1.8 µg/mL | < 0.54 µg/mL | No evidence of direct Xa inhibition | 8000 to 46000 nM | 45 to 250 µg/mL | 2.0 µg/mL | inhibited | 0.72 µg/mL | 130 nM | 0.6 to 0.7 µg/mL | inhibited | inhibition | inactive | 0.58 µg/mL | 110 nM | 3.9 µg/mL | 3.8 µg/mL | 220 to 280 nM | anti-bacterial IC50 (CFU) (Pseudomonas aeruginosa): < 0.25 µg/mL; IC50 (prothrombin (factor II) [1]; read-out: IC50, factor II activated by Xa): < 300 nM; IC50 (Human plasma [9]; read-out: IC50, Activate Partial Thromboplastin time): 700 nM
RNIP: reactive nitrogen inhibitory protein, amino acids 135-171 of SEQ ID NO:4 (rabbit CAP18 C-terminus); purified from granulocytes or synthetic (#197) (GLRKRLRKFRNKIKEKLKKIGQKIQGLLPKLAPRTDY) | < 40 nM | inactive | 2.8 µg/mL | < 0.44 µg/mL | No evidence of direct Xa inhibition | 9000 to 33000 nM | 55 to 200 µg/mL | 1.9 µg/mL | inhibited | 1 µg/mL | 160 nM | 0.3 to 0.6 µg/mL | inhibited | inhibition | inactive | 0.94 µg/mL | 150 nM | 7.9 µg/mL | 3.2 µg/mL | 220 to 280 nM | anti-bacterial IC50 (CFU) (Pseudomonas aeruginosa; FIG. 6E): < 250 µg/mL; IC50 (Klebsiella pneumoniae; read-out: anti-bacterial IC50 (CFU)): < 70 nM; IC50 (Human plasma [2]): 300 nM; IC50 (factor X; read-out: IC50, factor X activated by tissue factor and purified factor VII): 40 to 100 nM; IC50, Echis carinatus venom activation of factor II to IIa (prothrombin (factor II) [4]): 9.4 µg/mL; IC50 (prothrombin (factor II) [4]; read-out: IC50, Echis carinatus venom activation of factor II to IIa): 1500 nM; inhibition of LPS-induced tissue factor generation when peptide added after LPS ([5]; added as late as 3 hours after the LPS stimulus, FIG. 13): Significant inhibition
